Literature values as cited in patent US20070020218A1, “Composition and method for the treatment of psoriasis” (priority 2005, published 2007).

Key:
knee osteoarthritis = settings: for persistence of benefits after treatment was stopped: followed for an additional 60 days after the 90 days of treatment; for reduction of symptoms: over 90 days of treatment
[1] = system: osteoarthritis of the knee; settings: 85 people with osteoarthritis of the knee
arthritis of the knee = settings: 12 months, 104 individuals
[2] = oral
degenerative arthritis = settings: 2,250 mg daily for six weeks
[3] = system: osteoarthritis of the knee; settings: after 4 weeks, 252 people

## CN1C(C(=O)Nc2ccccn2)=C(O)c2ccccc2S1(=O)=O [piroxicam, reference compound]
Knee osteoarthritis
  persistence of benefits after treatment was stopped: rapidly disappeared
  reduction of symptoms: equally effective

## chondroitin sulfate
[1]
  participants with improved results: 69%
Arthritis of the knee
  trial outcome against placebo: Good results
[2]
  chondroitin absorbed intact: up to 15%

## CS(C)(=O)=O [MSM, Methylsulfonyl methane]
Degenerative arthritis
  reduction in pain on average: 82%

## N[C@H]1C(O)O[C@H](CO)[C@@H](O)[C@@H]1O.O=S(=O)(O)O (stereo partly drawn) [glucosamine sulfate]
[3]
  pain and movement against placebo: significantly reduced pain and improved movement
Knee osteoarthritis
  persistence of benefits after treatment was stopped: lasted for the full 60 days
  reduction of symptoms: equally effective
